The target of assay [1] is Carbonic anhydrase 2 (Homo sapiens, UniProt P00918).
The target in assay [2] is Carbonic anhydrase 1 (Homo sapiens, UniProt P00915).

As a reminder, the Ki is the equilibrium dissociation constant of an inhibitor or competing ligand from its target. High values mean weaker binding, low ones tighter binding.

Carbonic anhydrase 1, sequence (P00915 whole entry): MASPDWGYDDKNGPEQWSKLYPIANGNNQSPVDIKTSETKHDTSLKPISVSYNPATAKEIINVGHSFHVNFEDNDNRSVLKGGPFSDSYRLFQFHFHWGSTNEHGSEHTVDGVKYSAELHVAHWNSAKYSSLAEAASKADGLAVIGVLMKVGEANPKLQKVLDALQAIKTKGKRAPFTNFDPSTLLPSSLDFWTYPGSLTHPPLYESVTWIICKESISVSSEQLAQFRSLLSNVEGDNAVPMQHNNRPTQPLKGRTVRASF

As for `NS(=O)(=O)c1ccc(CNC(=O)Cc2ccccc2F)cc1`, the results for the Ki in assay [1] and in assay [2] were 26.3 nM and 269 nM, respectively.
For `NS(=O)(=O)c1ccc(CNC(=O)c2ccc(Br)cc2)cc1`, in that order: 63 nM and 95 nM.
For `NS(=O)(=O)c1ccc(CNC(=O)c2ccccc2Cc2ccccc2)cc1`, in that order: 54.4 nM and 98.3 nM.
For `CSCCC(=O)NCc1ccc(S(N)(=O)=O)cc1`, in that order: 69.5 nM and 572 nM.
Regarding `Cc1cccc(C(=O)NCc2ccc(S(N)(=O)=O)cc2)c1`, the Ki in assay [1] was 3.3 nM; in assay [2], 60.7 nM.
On the same counts, the results for `NS(=O)(=O)c1ccc(CNC(=O)c2cccc(Cl)c2)cc1` are 5.1 nM and 65.9 nM.
In the case of `NS(=O)(=O)c1ccc(CNC(=O)c2ccc(-c3ccccc3)cc2)cc1`, the Ki in assay [1] worked out at 920 nM; in assay [2], 2110 nM.
For `NS(=O)(=O)c1ccc(CNC(=O)c2ccsc2)cc1`, in that order: 83.8 nM and 44.2 nM.
On the same counts, the results for `NS(=O)(=O)c1ccc(CNC(=O)c2cc(Cl)ccc2Cl)cc1` are 31.6 nM and 77.8 nM.
